Source: patent publication US12419862B2, “Use of a cathepsin s inhibitor against the formation of anti-drug antibodies” (Hoffmann-La Roche Inc., priority 2018, dated 2025)
Entries after “also recorded” stand apart in the source; their conditions may differ.

Columns and labels:
[1] = tested on: CEA-specific IgG response; test: ADA against CEA-IL2v in wild-type mice, ELISA (Example 1, 28 days); type: in vivo, C57BL/6 wild type mice; details: 40 mg/kg/day via food admix from one week before first immunization until day 28, vs vehicle
Description: 15-week-old mice C57BL/6 wild type and C57BL/6-Tg (hIgG1,k,l) were purchased from Taconic (Denmark) and housed at the animal facilities under a 12 hour (h) light 12 h dark cycle with cycles of air ventilation and free access to water and food. 7×10 μg of CEA-112v or 7×10 μg of Humira (Adalimumab, Abbvie Germany GmbH) were injected respectively at day 0, 4, 7, 11, 14, 18 and 21 subcutaneously in the right flank or the left flank alternatively. The dosage of the cathepsin S inhibitor consumption was 40 mg/kg/day. The food admix (Ssniff Spezialdiäten, Germany) was given daily one day before the first immunization until day 28 for the mice immunized with Humira. The food admix was given daily one week before the first immunization until day 28 for the mice immunized with CEA-IL2v (R06895882). At day −12, 7, 14 and 28 blood samples were taken.
(§1) Nunc Maxisorp flat-bottom 96 well ELISA plates were coated with 100 μl per well of Humira or CEA-PGLALA (3.42 mg/ml, ID 8037) respectively at 5 μg/mL in NaHCO3100 mM buffer overnight at +4° C. The next day the ELISA plates were washed 3 times with PBS+0.05% Tween. […] 100 μl of substrate P-nitrophenyl phosphate ready to use (Life Technologies Cat no 002212) were added per well and after 10 min incubation at room temperature, the OD at 405 nm was read as an end-point measurement with a Versamax ELISA reader.

[2] = tested on: IgG response to murine surrogate PD-L1; test: ADA against murine surrogate PD-L1 in wild-type mice, ELISA (Example 7); type: in vivo, C57BL/6 mice; details: 40 mg/kg/day via food admix from one week before first immunization until day 23
Description: 10-week-old female mice C57BL/6 were purchased from Charles River Laboratories (Germany) and housed at the animal facilities in room with air-conditioned under a 12 hours light/dark cycle in macrolon boxes with enriched environment and free access to water and food. 10 mg/kg of muPD-L1 (P1AE4930-001) were injected at day 1, 8 and 15 intravenously to the group 4 (n=10 mice) and at day 1, 8, 15 and 22 to the group 5 (n=10 mice) respectively. The dosage of (2S,4R)-4-[4-(1-methyl-1H-pyrazol-4-yl)-2-trifluoromethyl-benzenesulfonyl]-1-(1-trifluoromethyl-cyclopropanecarbonyl)-pyrrolidine-2-carboxylic acid (1-cyano-cyclopropyl)-amide consumption was 40 mg/kg/day. (2S,4R)-4-[4-(1-methyl-1H-pyrazol-4-yl)-2-trifluoromethyl-benzenesulfonyl]-1-(1-trifluoromethyl-cyclopropanecarbonyl)-pyrrolidine-2-carboxylic acid (1-cyano-cyclopropyl)-amide was given via food admix (Ssniff Spezialdiäten, Germany) daily from one week before the first muPD-L1 immunization until day 23 to the group 5. […]
as §1, with “anti muPD-L1 (P1AE4930-001)” for “Humira or CEA-PGLALA (3.42 mg/ml, ID 8037) respectively”, “C.” for “C. The next day the ELISA plates were washed 3 times with PBS+0.05% Tween.”, “Technologies,” for “Technologies”

In the case of `Cn1cc(-c2ccc(S(=O)(=O)[C@@H]3C[C@@H](C(=O)NC4(C#N)CC4)N(C(=O)C4(C(F)(F)F)CC4)C3)c(C(F)(F)F)c2)cn1` [cathepsin S inhibitor, (2S,4R)-4-[4-(1-methyl-1H-pyrazol-4-yl)-2-trifluoromethyl-benzenesulfonyl]-1-(1-trifluoromethyl-cyclopropanecarbonyl)-pyrrolidine-2-carboxylic acid (1-cyano-cyclopropyl)-amide], the “ADA to CEA-IL2v (CEA-specific IgG)” value [1] is reported as “reduces its levels in wild-type mice; also recorded: only partial reduction of ADA” and the “ADA to mPD-L1” value [2] is reported as “significantly reduced ADA to mPD-L1”.
